# Publication PMC6363832 (Cancer epidemiology, biomarkers & prevention : a …, 2018)
# Assays:
# Assay type in all cases: biochemical
# Conditions in all cases: NADPH regenerating system, 50 mM potassium phosphate, 37 °C; HEK293 microsomes
# wt FMO5 [1] = molecular target: T1, wt FMO5 (Homo sapiens, UniProt P49326); experiment: nicotine-N'-oxide formation, UPLC-MS/MS
# T1 sequence (P49326 1-533): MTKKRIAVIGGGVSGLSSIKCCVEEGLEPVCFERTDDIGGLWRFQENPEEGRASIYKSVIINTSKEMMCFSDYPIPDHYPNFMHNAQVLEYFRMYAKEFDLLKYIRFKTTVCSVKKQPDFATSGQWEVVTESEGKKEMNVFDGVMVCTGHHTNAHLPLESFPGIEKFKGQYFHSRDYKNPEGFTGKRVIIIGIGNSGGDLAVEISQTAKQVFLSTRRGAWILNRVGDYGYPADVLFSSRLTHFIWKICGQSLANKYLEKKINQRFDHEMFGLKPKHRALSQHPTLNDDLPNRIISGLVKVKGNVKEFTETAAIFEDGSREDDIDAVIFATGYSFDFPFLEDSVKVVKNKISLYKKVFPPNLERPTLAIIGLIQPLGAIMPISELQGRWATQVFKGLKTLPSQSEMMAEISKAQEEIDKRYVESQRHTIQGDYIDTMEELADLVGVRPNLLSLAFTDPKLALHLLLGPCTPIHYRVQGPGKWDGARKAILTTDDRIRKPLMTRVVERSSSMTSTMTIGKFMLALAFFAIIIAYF
# wt FMO4 [2] = molecular target: T2, wt FMO4 (Homo sapiens, UniProt P31512); experiment: nicotine-N'-oxide formation, UPLC-MS/MS
# T2 sequence (P31512 1-558): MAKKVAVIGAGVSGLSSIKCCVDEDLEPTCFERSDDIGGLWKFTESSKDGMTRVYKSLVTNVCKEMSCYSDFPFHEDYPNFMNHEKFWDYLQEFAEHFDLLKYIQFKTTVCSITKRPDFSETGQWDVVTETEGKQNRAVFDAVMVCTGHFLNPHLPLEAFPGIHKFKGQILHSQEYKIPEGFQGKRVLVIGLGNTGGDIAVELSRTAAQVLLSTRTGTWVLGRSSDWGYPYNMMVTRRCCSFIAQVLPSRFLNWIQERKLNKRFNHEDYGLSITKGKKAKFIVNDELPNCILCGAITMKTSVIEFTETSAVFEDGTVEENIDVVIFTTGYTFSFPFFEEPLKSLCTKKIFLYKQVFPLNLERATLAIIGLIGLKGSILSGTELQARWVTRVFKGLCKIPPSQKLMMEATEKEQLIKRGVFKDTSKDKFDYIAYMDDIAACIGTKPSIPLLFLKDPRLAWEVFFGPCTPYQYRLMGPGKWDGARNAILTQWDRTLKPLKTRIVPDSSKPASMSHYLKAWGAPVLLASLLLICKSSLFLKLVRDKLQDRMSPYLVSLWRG
# wt FMO5 [3] = molecular target: T1, wt FMO5; experiment: benzydamine N-oxidation, UPLC-MS/MS
# wt FMO4 [4] = molecular target: T2, wt FMO4; experiment: benzydamine N-oxidation, UPLC-MS/MS
Km (wt FMO5 [3]) [mM],Km (wt FMO4 [4]) [mM],Compound,Km (wt FMO5 [1]) [mM],Km (wt FMO4 [2]) [mM]
,,"CN1CCC[C@H]1c1cccnc1 [compound 4, nicotine]",> 5,> 5
> 2,> 3,CN(C)CCCOc1nn(Cc2ccccc2)c2ccccc12 [benzydamine],,
